Test results from the supplement of paper PMC13380429.

Experiments:
[1] = tested on: Caco-2; assay: drug sensitivity score (DSS) for viability; higher = more toxic; extreme values may be limits of the assay; conditions: 72 h
[2] = tested on: HepG2; assay: as above; conditions: 72 h
[3] = tested on: Calu-3; assay: as above; conditions: 72 h
[4] = tested on: U2OS; assay: as above; conditions: 72 h
[5] = tested on: A549-ACE2 infected with SARS-CoV-2; assay: SARS-CoV-2 infection rate relative to DMSO; higher = more infection; conditions: 24 h
[6] = tested on: Caco-2; assay: relative viability EC50 (midpoint between 100% and the lowest measured viability); higher = less toxic; conditions: 72 h
[7] = tested on: HepG2; assay: as above; conditions: 72 h
[8] = tested on: Calu-3; assay: as above; conditions: 72 h
[9] = tested on: U2OS; assay: as above; conditions: 72 h
[10] = tested on: A549-ACE2 infected with SARS-CoV-2; assay: cell count relative to DMSO; higher = less toxic; conditions: 24 h
[11] = tested on: A549-ACE2; assay: phospholipidosis EC50; higher = less potent phospholipidosis inducer
[12] = tested on: Caco-2; assay: cell viability relative to DMSO; higher = less toxic; conditions: 72 h
[13] = tested on: HepG2; assay: as above; conditions: 72 h
[14] = tested on: Calu-3; assay: as above; conditions: 72 h
[15] = tested on: U2OS; assay: as above; conditions: 72 h
[16] = tested on: A549-ACE2 infected with SARS-CoV-2; assay: morphology score (similarity to uninfected cells); higher = more like uninfected cells; conditions: 24 h
[17] = tested on: A549-ACE2; assay: drug-induced phospholipidosis relative to tamoxifen; higher = more phospholipidosis
[18] = tested on: Vero E6; assay: drug sensitivity score (DSS) for viability; higher = more toxic; extreme values may be limits of the assay; conditions: 72 h
[19] = tested on: Vero E6; assay: relative viability EC50 (midpoint between 100% and the lowest measured viability); higher = less toxic; conditions: 72 h
[20] = tested on: Vero E6; assay: cell viability relative to DMSO; higher = less toxic; conditions: 72 h

CN1CC2c3ccccc3Oc3ccc(Cl)cc3C2C1 (stereo not given) [asenapine]
Conditions | drug sensitivity score | relative viability EC50 [µM]
[1] | 0 | –
[2] | 0 | –
[3] | 0 | –
[4] | 0 | –
[6] | – | > 10
[7] | – | > 10
[8] | – | > 10
[9] | – | > 10

Conditions | SARS-CoV-2 infection rate [%] | cell count [%] | cell viability [%] | morphology score | phospholipidosis EC50 [µM]
[5], 0.3 µM | 94 | – | – | – | –
[5], 3 µM | 59 | – | – | – | –
[5], 10 µM | 32 | – | – | – | –
[5], 30 µM | 30 | – | – | – | –
[10], 0.3 µM | – | 102 | – | – | –
[10], 3 µM | – | 118 | – | – | –
[10], 10 µM | – | 109 | – | – | –
[10], 30 µM | – | 102 | – | – | –
[11], 24 h | – | – | – | – | 7.2
[11], 48 h | – | – | – | – | 7.65
[11], 72 h | – | – | – | – | 9.6
[12], 1 nM | – | – | 94.9 | – | –
[12], 10 nM | – | – | 108 | – | –
[12], 100 nM | – | – | 106 | – | –
[12], 1000 nM | – | – | 108 | – | –
[12], 10000 nM | – | – | 109 | – | –
[13], 1 nM | – | – | 112 | – | –
[13], 10 nM | – | – | 106 | – | –
[13], 100 nM | – | – | 103 | – | –
[13], 1000 nM | – | – | 96.3 | – | –
[13], 10000 nM | – | – | 96.7 | – | –
[14], 1 nM | – | – | 94.9 | – | –
[14], 10 nM | – | – | 96.5 | – | –
[14], 100 nM | – | – | 90.8 | – | –
[14], 1000 nM | – | – | 104 | – | –
[14], 10000 nM | – | – | 89.2 | – | –
[15], 1 nM | – | – | 99.5 | – | –
[15], 10 nM | – | – | 105 | – | –
[15], 100 nM | – | – | 101 | – | –
[15], 1000 nM | – | – | 108 | – | –
[15], 10000 nM | – | – | 98.2 | – | –
[16], 0.3 µM | – | – | – | 0.2 | –
[16], 3 µM | – | – | – | 0.63 | –
[16], 10 µM | – | – | – | 0.71 | –
[16], 30 µM | – | – | – | 0.39 | –

drug-induced phospholipidosis [%], [17]
Conditions | 0.3 µM | 0.833333 µM | 3.33333 µM | 6.66667 µM | 10 µM | 30 µM
24 h | 0.93 | 1.66 | 23.3 | 56.2 | 82.5 | 115
48 h | 2.52 | 0.05 | 14.9 | 49 | 77.2 | 111
72 h | 4.59 | 1.7 | 16.8 | 43.5 | 70.2 | 117

COCC(=O)O[C@]1(CCN(C)CCCc2nc3ccccc3[nH]2)CCc2cc(F)ccc2[C@@H]1C(C)C [mibefradil]
Conditions | drug sensitivity score | relative viability EC50 [µM]
[1] | 4.9 | –
[2] | 2.8 | –
[3] | 5.1 | –
[4] | 3 | –
[6] | – | 1.61
[8] | – | 3.24
[18] | 0 | –
[19] | – | > 10

Conditions | SARS-CoV-2 infection rate [%] | cell count [%] | cell viability [%] | morphology score | phospholipidosis EC50 [µM]
[5], 0.3 µM | 102 | – | – | – | –
[5], 3 µM | 32 | – | – | – | –
[5], 10 µM | 9 | – | – | – | –
[5], 30 µM | 84 | – | – | – | –
[10], 0.3 µM | – | 100 | – | – | –
[10], 3 µM | – | 125 | – | – | –
[10], 10 µM | – | 119 | – | – | –
[10], 30 µM | – | 12 | – | – | –
[11], 24 h | – | – | – | – | 2.94
[11], 48 h | – | – | – | – | 4.35
[11], 72 h | – | – | – | – | 7.83
[12], 1 nM | – | – | 101 | – | –
[12], 10 nM | – | – | 90.3 | – | –
[12], 100 nM | – | – | 101 | – | –
[12], 1000 nM | – | – | 87.4 | – | –
[12], 10000 nM | – | – | 45.8 | – | –
[13], 1 nM | – | – | 99 | – | –
[13], 10 nM | – | – | 97.7 | – | –
[13], 100 nM | – | – | 88.2 | – | –
[13], 1000 nM | – | – | 98.3 | – | –
[13], 10000 nM | – | – | 50.3 | – | –
[14], 1 nM | – | – | 99.8 | – | –
[14], 10 nM | – | – | 105 | – | –
[14], 100 nM | – | – | 109 | – | –
[14], 1000 nM | – | – | 101 | – | –
[14], 10000 nM | – | – | 7.2 | – | –
[15], 1 nM | – | – | 103 | – | –
[15], 10 nM | – | – | 97.9 | – | –
[15], 100 nM | – | – | 98.7 | – | –
[15], 1000 nM | – | – | 90.9 | – | –
[15], 10000 nM | – | – | 65.6 | – | –
[16], 0.3 µM | – | – | – | -0.1 | –
[16], 3 µM | – | – | – | 0.85 | –
[16], 10 µM | – | – | – | 0.71 | –
[16], 30 µM | – | – | – | -0.08 | –
[20], 1 nM | – | – | 94.7 | – | –
[20], 10 nM | – | – | 98.8 | – | –
[20], 100 nM | – | – | 92.9 | – | –
[20], 1000 nM | – | – | 91.4 | – | –
[20], 10000 nM | – | – | 89 | – | –

drug-induced phospholipidosis [%], [17]
Conditions | 0.3 µM | 0.833333 µM | 3.33333 µM | 6.66667 µM | 10 µM | 30 µM
24 h | -2.56 | 5.28 | 65.2 | 87.9 | 115 | 45.3
48 h | 0.45 | 7.22 | 63.5 | 96.7 | 118 | –
72 h | 4.04 | 7.42 | 45.4 | 91.8 | 122 | –
